Source: PubChem BioAssay AID1963986 (Molecular Pharmacology Branch, DTP, NCI, 2024)

Tested on: 171881-019-R-J1-PDC tumor spheroid viability
Test: Anticancer human tumor 171881-019-R-J1-PDC patient-derived invasive breast carcinoma cell line growth inhibition [PI3K]
Settings: spheroids with HUVEC and MSC; for IC50: curve of first compound; for viability, T/C: stronger effect = lower value
Method in brief: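 Viability of mixed-cell spheroids was determined after exposure to pairwise combinations, one partner being inavolisib, alpelisib, duvelisib or copanlisib. Highest tested concentration matched clinical Cmax where known and 10 microM where not, descending in half-log steps.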
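Also: spheroids exposed to compound for 7 days before viability read.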
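For viability, T/C in this document: 100% = DMSO vehicle-treated spheroids.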

SMILES: CC1(C)CCC(Nc2ncc(C(F)(F)F)c(-c3c[nH]c4c(P(C)(C)=O)c(C#N)ccc34)n2)CN1 (configuration not stated) + Cc1nc(NC(=O)N2CCCC2C(N)=O)sc1-c1ccnc(C(C)(C)C(F)(F)F)c1
- IC50 (second compound 0.0316 µM): 5340 nM
- IC50 (second compound 0.1 µM): 4400 nM
- IC50 (second compound 0.316 µM): 1030 nM
- IC50 (second compound 1 µM): < 31.6 nM
- IC50 (second compound 3.16 µM): < 31.6 nM
- IC50 (second compound 10 µM): < 31.6 nM
- viability, T/C (second compound 0.0316 µM, first compound 0.0316 µM): 66.7%
- viability, T/C (second compound 0.0316 µM, first compound 0.1 µM): 65%
- viability, T/C (second compound 0.0316 µM, first compound 0.316 µM): 73.8%
- viability, T/C (second compound 0.0316 µM, first compound 1 µM): 79.6%
- viability, T/C (second compound 0.0316 µM, first compound 3.16 µM): 77.5%
- viability, T/C (second compound 0.0316 µM, first compound 10 µM): 22.9%
- viability, T/C (second compound 0.1 µM, first compound 0.0316 µM): 59.4%
- viability, T/C (second compound 0.1 µM, first compound 0.1 µM): 65%
- viability, T/C (second compound 0.1 µM, first compound 0.316 µM): 62.9%
- viability, T/C (second compound 0.1 µM, first compound 1 µM): 71.4%
- viability, T/C (second compound 0.1 µM, first compound 3.16 µM): 63.4%
- viability, T/C (second compound 0.1 µM, first compound 10 µM): 16.3%
- viability, T/C (second compound 0.316 µM, first compound 0.0316 µM): 46.7%
- viability, T/C (second compound 0.316 µM, first compound 0.1 µM): 49%
- viability, T/C (second compound 0.316 µM, first compound 0.316 µM): 49.6%
- viability, T/C (second compound 0.316 µM, first compound 1 µM): 55.5%
- viability, T/C (second compound 0.316 µM, first compound 3.16 µM): 47.8%
- viability, T/C (second compound 0.316 µM, first compound 10 µM): 7.89%
- viability, T/C (second compound 1 µM, first compound 0.0316 µM): 31.4%
- viability, T/C (second compound 1 µM, first compound 0.1 µM): 30.6%
- viability, T/C (second compound 1 µM, first compound 0.316 µM): 33.4%
- viability, T/C (second compound 1 µM, first compound 1 µM): 32.7%
- viability, T/C (second compound 1 µM, first compound 3.16 µM): 28.7%
- viability, T/C (second compound 1 µM, first compound 10 µM): 3.22%
- viability, T/C (second compound 3.16 µM, first compound 0.0316 µM): 15.9%
- viability, T/C (second compound 3.16 µM, first compound 0.1 µM): 17%
- viability, T/C (second compound 3.16 µM, first compound 0.316 µM): 17.7%
- viability, T/C (second compound 3.16 µM, first compound 1 µM): 18.8%
- viability, T/C (second compound 3.16 µM, first compound 3.16 µM): 13.3%
- viability, T/C (second compound 3.16 µM, first compound 10 µM): 1.08%
- viability, T/C (second compound 10 µM, first compound 0.0316 µM): 4.21%
- viability, T/C (second compound 10 µM, first compound 0.1 µM): 4.48%
- viability, T/C (second compound 10 µM, first compound 0.316 µM): 5.01%
- viability, T/C (second compound 10 µM, first compound 1 µM): 5.05%
- viability, T/C (second compound 10 µM, first compound 3.16 µM): 2.85%
- viability, T/C (second compound 10 µM, first compound 10 µM): 0.32%
